Experimental data taken from patent US9592210B2, “1-phenylalkanecarboxylic acid derivatives for the treatment of cognitive impairment” (Chiesi Farmaceutici S.p.A., priority 2011, dated 2017).
Where two headings read alike, the source gives them in different places.

How the values were obtained:
[1] = Morris water maze (preclinical); type: in vivo; details: preclinical study
[2] = Object recognition test (preclinical); type: in vivo; details: preclinical stage
[3] = mice, oral; cited from earlier work
[4] = guinea-pigs, cited from earlier work
COX-2 = molecular target: T1, COX-2 (Homo sapiens, UniProt P35354); details: concentrations up to 300 μM; cited from earlier work
T1 sequence (P35354 18-604): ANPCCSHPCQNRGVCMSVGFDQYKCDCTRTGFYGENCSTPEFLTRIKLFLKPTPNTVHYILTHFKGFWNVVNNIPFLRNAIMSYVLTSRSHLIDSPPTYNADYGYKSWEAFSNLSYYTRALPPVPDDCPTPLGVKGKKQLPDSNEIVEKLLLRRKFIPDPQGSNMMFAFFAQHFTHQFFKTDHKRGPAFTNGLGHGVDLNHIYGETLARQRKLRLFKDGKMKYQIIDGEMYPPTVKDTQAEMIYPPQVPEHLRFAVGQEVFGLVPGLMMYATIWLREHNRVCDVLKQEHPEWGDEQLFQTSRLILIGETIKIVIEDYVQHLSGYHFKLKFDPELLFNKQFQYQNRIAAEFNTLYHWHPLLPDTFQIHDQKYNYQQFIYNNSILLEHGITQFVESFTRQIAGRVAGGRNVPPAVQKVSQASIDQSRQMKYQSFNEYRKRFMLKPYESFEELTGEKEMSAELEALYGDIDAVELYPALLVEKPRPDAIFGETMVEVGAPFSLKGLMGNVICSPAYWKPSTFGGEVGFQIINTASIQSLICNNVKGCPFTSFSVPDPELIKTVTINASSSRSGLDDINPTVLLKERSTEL

COX-1 = COX-1 (Homo sapiens, UniProt P23219); details: concentrations up to 100 μM; cited from earlier work
[5] = Fear conditioning (preclinical); type: in vivo; details: preclinical studies
[6] = tested on: human neuroglioma cells over-expressing the Swedish mutated APP (H4swe); details: read-out: IC50 for lowering Aβ42 secretion; cited from earlier work
[7] = tested on: Notch intracellular cleavage in human embryonic kidney 293 swe cells; details: 5 μM; cited from earlier work
[8] = dogs, cited from earlier work
[9] = rats, oral; cited from earlier work
[10] = tested on: transgenic mouse models of AD; details: cited from earlier work
[11] = species not given; follows mice and rats; cited from earlier work
NICD-responsive genes = details: 100 μM; cited from earlier work
γ-secretase [12] = details: cited from earlier work
γ-secretase [13] = details: cited from earlier work; remark: listed apart in the source
AD patients = details: cited from earlier work
dendritic spine density = details: mice; cited from earlier work

COX-1, sequence (P23219 24-599): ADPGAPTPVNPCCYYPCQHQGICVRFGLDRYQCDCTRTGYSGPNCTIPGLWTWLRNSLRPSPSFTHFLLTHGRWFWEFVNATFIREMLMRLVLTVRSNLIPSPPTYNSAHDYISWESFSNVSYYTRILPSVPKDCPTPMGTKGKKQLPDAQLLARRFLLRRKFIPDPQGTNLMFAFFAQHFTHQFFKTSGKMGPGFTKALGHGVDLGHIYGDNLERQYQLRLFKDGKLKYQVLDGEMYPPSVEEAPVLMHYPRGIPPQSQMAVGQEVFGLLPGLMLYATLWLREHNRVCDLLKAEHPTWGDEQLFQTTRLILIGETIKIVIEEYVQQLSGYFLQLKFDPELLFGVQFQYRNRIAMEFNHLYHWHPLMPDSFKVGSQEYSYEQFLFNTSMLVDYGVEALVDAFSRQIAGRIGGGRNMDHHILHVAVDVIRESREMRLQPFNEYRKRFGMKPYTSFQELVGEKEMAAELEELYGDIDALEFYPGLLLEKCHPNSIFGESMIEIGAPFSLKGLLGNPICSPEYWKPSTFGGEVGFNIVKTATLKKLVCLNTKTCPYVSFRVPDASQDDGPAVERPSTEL

## O=C(O)C1(c2ccc(-c3ccc(Cl)c(Cl)c3)c(F)c2)CC1 [CHF 5074, 1-(3′,4′-dichloro-2-fluorobiphenyl-4-yl)cyclopropanecarboxylic acid]
[1]
  Morris water maze performance: marginal effects
[2]
  object recognition test performance: positive effects
[3]
  absorbed orally: 74%
[4]; after oral administration
  plasma elimination half-life t1/2: ≈ 30 hours
[4]
  brain penetration: 3-9%
COX-2
  inhibitory activity on COX-2: does not display inhibitory activity
COX-1
  inhibitory activity on COX-1: does not display inhibitory activity
[5]
  fear conditioning performance: significantly improved
[6]
  IC50: 3.6 µM
[7]
  effects on Notch intracellular cleavage: no effects were observed
[8]; oral
  absorbed by oral route: 80-100%
[8]
  plasma elimination t1/2: ≈ 24 hours
[9]
  absorbed orally: 50%
[10]; 60 mg/kg/day, prolonged treatment for 4-9 months, mice
  tolerability: well tolerated
[10]; oral doses of 60 mg/kg/day
  neuropathological and behavioral activity: active from neuropathological and behavioral points of view
[11]
  brain levels as % of corresponding plasma concentrations: 3-14%
NICD-responsive genes
  expression profile of several NICD-responsive genes: does not alter

## CC(C(=O)O)c1ccc(-c2ccccc2)c(F)c1 (stereo not drawn) [flurbiprofen]
γ-secretase [12]
  formation of Aβ38: increase
  production of Aβ42: lower

## CC(C)Cc1ccc(C(C)C(=O)O)cc1 (stereo not drawn) [ibuprofen]
γ-secretase [12]
  formation of Aβ38: increase
  production of Aβ42: lower

## COc1ccc2c(c1)c(CC(=O)O)c(C)n2C(=O)c1ccc(Cl)cc1 [indomethacin]
γ-secretase [12]
  formation of Aβ38: increase
  production of Aβ42: lower

## CC(C)[C@H](O)C(=O)N[C@@H](C)C(=O)N[C@@H]1C(=O)N(C)CCc2ccccc21 [semagacestat]
γ-secretase [13]; brain and CSF
  brain and CSF levels of Aβ42 peptide: increase
γ-secretase [13]; brain
  brain level of C-terminal fragment of APP (CTFβ or C99): accumulation
AD patients; interim analysis of two Phase 3 trials
  cognition and ability to complete activities of daily living versus placebo: worsened over time to a statistically significantly higher rate
AD patients; two 21-month Phase 3 trials, more than 2,600 AD patients
  rate of skin cancer compared to placebo: increased rate of skin cancer
Dendritic spine density
  dendritic spine density: decrease

## CSc1ccc(/C=C2/C(C)=C(CC(=O)O)c3cc(F)ccc32)cc1 [sulindac sulfide]
γ-secretase [12]
  formation of Aβ38: increase
  production of Aβ42: lower
